Laboratory results as given in patent publication US6608082B1, “Treatment of erectile dysfunction using isoquinoline compound melanocortin receptor ligands” (Lion Bioscience AG, priority 1998, dated 2003).
pIC50: −log10 of the molar value. Read-outs that look alike come from different tables or passages of the source. Each block holds one compound with its values, some of them ahead of it.

How the values were obtained:
MCR-4 = target: T1, MCR-4 (Homo sapiens, UniProt P32245); test: Melanocortin receptor binding assay, competition with 125I-HP 467, HEK 293 cells expressing hMCR-4; details: read-out: MC-4 IC50
T1 construct: expressed in transfected cells; host or cells: HEK 293
Summary of the method: (§1)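 Intact-cell competition binding, 2.5 hr at 37 °C, in PBS/10% calf serum/1 mM CaCl2; hMCR-4 cells at 4×10^3 per tube, hMCR-1 cells at 2×10^4 per tube. Filtration on BSA/CaCl2-soaked GF/B, cold 50 mM Tris pH 7.4 washes, scintillation count.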

MCR-1 = target: T2, MCR-1 (Homo sapiens, UniProt Q01726); test: Melanocortin receptor binding assay, competition with 125I-HP 467, HEK 293 cells expressing hMCR-1; details: read-out: MC-1 IC50
T2 construct: expressed in transfected cells; host or cells: HEK 293
Summary of the method: as §1

[1] = competition with 125I-HP 467, HEK 293 cells expressing MCR-4
[2] = competition with 125I-HP 467, HEK 293 cells expressing MCR-1
[3] = inhibition of binding of 125I-HP 467, HEK 293 cells expressing MCR-4
[4] = inhibition of binding of 125I-HP 467, HEK 293 cells expressing MCR-1
[5] = inhibition of binding of 125I-HP 467, HEK 293 cells expressing MCR-4, TRG 2414 library
[6] = inhibition of binding of 125I-HP 467, HEK 293 cells expressing MCR-1, TRG 2414 library
[7] = TRG 2414 library, inhibition of binding of 125I-HP 467, HEK 293 cells expressing MCR-4
[8] = TRG 2414 library, inhibition of binding of 125I-HP 467, HEK 293 cells expressing MCR-1
[9] = TRG 2408 and TRG 2409 libraries, inhibition of 125I-HP 467 binding
[10] = TRG 2406 and TRG 2407 libraries, inhibition of binding of 125I-HP 467

T2 sequence (Q01726 whole entry): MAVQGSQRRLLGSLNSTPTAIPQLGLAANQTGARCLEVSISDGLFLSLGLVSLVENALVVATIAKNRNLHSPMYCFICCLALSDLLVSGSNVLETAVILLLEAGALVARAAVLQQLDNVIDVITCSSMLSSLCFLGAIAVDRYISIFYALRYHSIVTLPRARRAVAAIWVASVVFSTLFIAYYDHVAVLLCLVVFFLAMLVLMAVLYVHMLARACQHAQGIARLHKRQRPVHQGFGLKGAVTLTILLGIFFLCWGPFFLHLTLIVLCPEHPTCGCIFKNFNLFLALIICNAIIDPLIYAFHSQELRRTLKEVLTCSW
T1 sequence (P32245 whole entry): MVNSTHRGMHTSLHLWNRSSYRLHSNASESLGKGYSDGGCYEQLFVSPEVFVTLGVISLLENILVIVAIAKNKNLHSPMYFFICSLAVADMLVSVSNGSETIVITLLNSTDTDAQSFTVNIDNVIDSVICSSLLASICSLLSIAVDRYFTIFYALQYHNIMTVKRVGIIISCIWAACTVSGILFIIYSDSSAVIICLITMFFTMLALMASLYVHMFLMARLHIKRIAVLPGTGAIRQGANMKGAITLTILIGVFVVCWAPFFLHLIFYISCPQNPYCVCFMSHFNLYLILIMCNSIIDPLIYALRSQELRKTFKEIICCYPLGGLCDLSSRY

Structure (SMILES): Cc1ccc(CNC(CN)CCCCN2Cc3ccccc3C(CNCCc3ccccc3)C2c2cc(C(F)(F)F)cc(C(F)(F)F)c2)cc1 (mixture of isomers) [TRG 2421-2]
pIC50 (MCR-4; [3]): 5.52 | pIC50 (MCR-1; [4]): 5.43

Structure (SMILES): NCC(CCCCN1Cc2ccccc2C(CNCc2ccccc2C(F)(F)F)C1c1cc(C(F)(F)F)cc(C(F)(F)F)c1)NCc1ccccc1 (centres unmarked) [TRG 2414-43]
pIC50 (MCR-4; [5]): 4.38 | pIC50 (MCR-1; [6]): 4.25

Structure (SMILES): NCC(N)CCCCN1Cc2ccccc2C(CNCc2ccccc2)C1c1cccc(Oc2ccccc2)c1 (centres unmarked) [TRG 2414-109]
pIC50 (MCR-4; [5]): 6.04 | pIC50 (MCR-1; [6]): 5.51

Structure (SMILES): CCNc1ccc(C2C(CNCCc3ccccc3)c3ccccc3CN2CCCC(N)CN)cc1 (centres unmarked) [TRG 2411-150]
pIC50 (MCR-4; [3]): 5.34 | pIC50 (MCR-1; [4]): 6.92

Structure (SMILES): Cc1ccc(CNC(CN)CCCCN2Cc3ccccc3C(CNCCc3ccc(Oc4ccccc4)cc3)C2c2cc(C(F)(F)F)cc(C(F)(F)F)c2)cc1 (centres unmarked) [TRG 2421-27]
pIC50 (MCR-4; [3]): 5.03 | pIC50 (MCR-1; [4]): 5.14

Structure (SMILES): COc1ccc(CNCC2c3ccccc3CN(CCCCC(CN)NCc3ccccc3)C2c2ccccc2Br)cc1 (centres unmarked) [Cmpd 223]
pIC50 (MCR-4; [7]): 5.09 | pIC50 (MCR-1; [8]): 4.98

Structure (SMILES): CCCOc1ccc(C2C(CNCCc3ccccc3OC)c3ccccc3CN2CCCCC(CN)NCc2ccccc2)cc1 (centres unmarked) [TRG 2414-171]
pIC50 (MCR-4; [5]): 5.32 | pIC50 (MCR-1; [6]): 5.96

Structure (SMILES): NCC(CCCCN1Cc2ccccc2C(CNCCc2ccc(Oc3ccccc3)cc2)C1c1cc(C(F)(F)F)cc(C(F)(F)F)c1)NCc1ccccc1 (centres unmarked) [TRG 2421-26]
pIC50 (MCR-4; [3]): 4.89 | pIC50 (MCR-1; [4]): 4.94

Structure (SMILES): CCNc1ccc(C2C(CNCCc3ccccc3)c3ccccc3CN2CCCC(CN)NCC2CC2CNC(C)C)cc1 (centres unmarked) [TRG 2420-5]
pIC50 (MCR-4; [3]): 5.01 | pIC50 (MCR-1; [4]): 7.37

Structure (SMILES): CCCCNc1ccc(C2C(CNCCc3ccccc3)c3ccccc3CN2CCCC(CN)NCCc2ccc(OC)cc2)cc1 (centres unmarked) [TRG 2411-195]
pIC50 (MCR-4; [3]): 5.84 | pIC50 (MCR-1; [4]): 6.80

Structure (SMILES): CCNc1ccc(C2C(CN)c3ccccc3CN2CCCC(CN)NCC2CC2CN(CC)CC)cc1 (centres unmarked) [TRG 2420-27]
pIC50 (MCR-4; [3]): 5.38 | pIC50 (MCR-1; [4]): 7.40

Structure (SMILES): COc1ccc(CNC(CN)CCCCN2Cc3ccccc3C(CNCCc3cccc(OC)c3)C2c2cccc(C(F)(F)F)c2)cc1 (centres unmarked) [TRG 2421-48]
pIC50 (MCR-4; [3]): 6.02 | pIC50 (MCR-1; [4]): 5.76

Structure (SMILES): CCNc1ccc(C2C(CNCCc3ccccc3)c3ccccc3CN2CCCCC(CN)NCCc2ccc(Br)cc2)cc1 (mixture of isomers) [TRG 2411-41]
pIC50 (MCR-4; [1]): 5.79 | pIC50 (MCR-1; [2]): 6.31

Structure (SMILES): CCNc1ccc(C2C(CNCCc3ccccc3)c3ccccc3CN2CCCC(CN)NCCc2ccccc2)cc1 (centres unmarked) [TRG 2411-155]
pIC50 (MCR-4; [3]): 6.14 | pIC50 (MCR-1; [4]): 7.05

Further lines, results first:

pIC50 (MCR-4; [1]): 5.91 | pIC50 (MCR-1; [2]): 6.25
Structure (SMILES): CNC(C)CNC(CN)CCCCN1Cc2ccccc2C(CN)C1c1ccc(-c2ccccc2)cc1 (mixture of isomers) [TRG 2411-28]

pIC50 (MCR-4; [1]): 6.00 | pIC50 (MCR-1; [2]): 6.57
Structure (SMILES): NCC(CCCCN1Cc2ccccc2C(CNC2CCCCC2)C1c1ccc(-c2ccccc2)cc1)NCC1CCCCC1 (centres unmarked) [TRG 2411-21]

pIC50 (MCR-4; [9]): 4.98 | pIC50 (MCR-1; [9]): 5.49
Structure (SMILES): CNCCNC(CN)CCN1Cc2ccccc2C(CNC2CCCCC2)C1c1ccc(-c2ccccc2)cc1 (mixture of isomers) [TRG 2408-114]

pIC50 (MCR-4; [9]): 4.50 | pIC50 (MCR-1; [9]): 5.78
Structure (SMILES): CCNc1ccc(C2C(CNC3CCCCC3)c3ccccc3CN2CCCCC(N)CN)cc1 (centres unmarked) [TRG 2408-5]

pIC50 (MCR-4; [10]): 5.44 | pIC50 (MCR-1; [10]): 6.51
Structure (SMILES): CNC(CN)CCCCN1Cc2ccccc2C(CNC(C)C)C1c1ccc(-c2ccccc2)cc1 (centres unmarked) [TRG 2407-28]

pIC50 (MCR-4; [1]): 6.11 | pIC50 (MCR-1; [2]): 6.21
Structure (SMILES): CCCCNC(CN)CCCCN1Cc2ccccc2C(CNC2CCCCC2)C1c1ccc(-c2ccccc2)cc1 (centres unmarked) [TRG 2411-20]

pIC50 (MCR-4; [7]): 5.27 | pIC50 (MCR-1; [8]): 5.84
Structure (SMILES): CCCOc1ccc(C2C(CNCc3ccccc3)c3ccccc3CN2CCCCC(CN)NCCc2ccccc2)cc1 (centres unmarked) [Cmpd 190]

pIC50 (MCR-4; [7]): 5.28 | pIC50 (MCR-1; [8]): 5.56
Structure (SMILES): NCC(CCCCN1Cc2ccccc2C(CNC2CCCCC2)C1c1ccccc1Br)NCCc1ccccc1 (centres unmarked) [Cmpd 238]

pIC50 (MCR-4; [9]): 4.35 | pIC50 (MCR-1; [9]): 5.89
Structure (SMILES): CCNc1ccc(C2C(CNC3CCCCC3)c3ccccc3CN2CCCCC(CN)NCCN)cc1 (mixture of isomers) [TRG 2408-7]

pIC50 (MCR-4; [5]): 5.34 | pIC50 (MCR-1; [6]): 4.95
Structure (SMILES): NCC(CCCCN1Cc2ccccc2C(CNC2CCCCCC2)C1c1cc(C(F)(F)F)cc(C(F)(F)F)c1)NCCc1ccccc1 (centres unmarked) [TRG 2414-74]

pIC50 (MCR-4; [9]): 4.79 | pIC50 (MCR-1; [9]): 5.40
Structure (SMILES): CCNc1ccc(C2C(CNC3CCCCC3)c3ccccc3CN2CCC(CN)NCCN)cc1 (centres unmarked) [TRG 2408-93]
